Source: ChEMBL document CHEMBL4507291 (2021)

What was measured:
[1] = target: Serine/threonine-protein kinase MARK1 (Homo sapiens) (UniProt Q9P0L2)
[2] = target: cAMP-dependent protein kinase catalytic subunit beta (Homo sapiens) (UniProt P22694)
[3] = target: Tyrosine-protein kinase Fer (Homo sapiens) (UniProt P16591)
[4] = target: Homeodomain-interacting protein kinase 1 (Homo sapiens) (UniProt Q86Z02)
[5] = target: BMP-2-inducible protein kinase (Homo sapiens) (UniProt Q9NSY1)
[6] = target: Insulin receptor-related protein (Homo sapiens) (UniProt P14616)
[7] = target: Serine/threonine-protein kinase Nek6 (Homo sapiens) (UniProt Q9HC98)
[8] = target: T1, Serine/threonine-protein kinase Sgk3 (Homo sapiens) (UniProt Q96BR1)
T1 sequence (whole entry): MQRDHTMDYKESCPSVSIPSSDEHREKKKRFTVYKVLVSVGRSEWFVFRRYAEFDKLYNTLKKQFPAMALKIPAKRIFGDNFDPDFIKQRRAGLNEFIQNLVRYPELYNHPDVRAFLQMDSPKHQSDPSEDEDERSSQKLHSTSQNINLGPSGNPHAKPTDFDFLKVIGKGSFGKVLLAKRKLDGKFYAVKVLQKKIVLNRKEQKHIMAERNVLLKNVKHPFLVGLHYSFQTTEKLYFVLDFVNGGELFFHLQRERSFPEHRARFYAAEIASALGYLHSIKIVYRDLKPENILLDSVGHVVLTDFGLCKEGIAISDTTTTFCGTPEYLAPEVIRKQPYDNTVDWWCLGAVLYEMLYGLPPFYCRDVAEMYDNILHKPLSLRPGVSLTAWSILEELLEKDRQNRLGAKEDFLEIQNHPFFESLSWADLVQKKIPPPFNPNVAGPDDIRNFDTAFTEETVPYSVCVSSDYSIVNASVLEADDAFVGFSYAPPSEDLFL

[9] = target: T2, Serine/threonine-protein kinase Nek1 (Homo sapiens) (UniProt Q96PY6)
T2 sequence (whole entry): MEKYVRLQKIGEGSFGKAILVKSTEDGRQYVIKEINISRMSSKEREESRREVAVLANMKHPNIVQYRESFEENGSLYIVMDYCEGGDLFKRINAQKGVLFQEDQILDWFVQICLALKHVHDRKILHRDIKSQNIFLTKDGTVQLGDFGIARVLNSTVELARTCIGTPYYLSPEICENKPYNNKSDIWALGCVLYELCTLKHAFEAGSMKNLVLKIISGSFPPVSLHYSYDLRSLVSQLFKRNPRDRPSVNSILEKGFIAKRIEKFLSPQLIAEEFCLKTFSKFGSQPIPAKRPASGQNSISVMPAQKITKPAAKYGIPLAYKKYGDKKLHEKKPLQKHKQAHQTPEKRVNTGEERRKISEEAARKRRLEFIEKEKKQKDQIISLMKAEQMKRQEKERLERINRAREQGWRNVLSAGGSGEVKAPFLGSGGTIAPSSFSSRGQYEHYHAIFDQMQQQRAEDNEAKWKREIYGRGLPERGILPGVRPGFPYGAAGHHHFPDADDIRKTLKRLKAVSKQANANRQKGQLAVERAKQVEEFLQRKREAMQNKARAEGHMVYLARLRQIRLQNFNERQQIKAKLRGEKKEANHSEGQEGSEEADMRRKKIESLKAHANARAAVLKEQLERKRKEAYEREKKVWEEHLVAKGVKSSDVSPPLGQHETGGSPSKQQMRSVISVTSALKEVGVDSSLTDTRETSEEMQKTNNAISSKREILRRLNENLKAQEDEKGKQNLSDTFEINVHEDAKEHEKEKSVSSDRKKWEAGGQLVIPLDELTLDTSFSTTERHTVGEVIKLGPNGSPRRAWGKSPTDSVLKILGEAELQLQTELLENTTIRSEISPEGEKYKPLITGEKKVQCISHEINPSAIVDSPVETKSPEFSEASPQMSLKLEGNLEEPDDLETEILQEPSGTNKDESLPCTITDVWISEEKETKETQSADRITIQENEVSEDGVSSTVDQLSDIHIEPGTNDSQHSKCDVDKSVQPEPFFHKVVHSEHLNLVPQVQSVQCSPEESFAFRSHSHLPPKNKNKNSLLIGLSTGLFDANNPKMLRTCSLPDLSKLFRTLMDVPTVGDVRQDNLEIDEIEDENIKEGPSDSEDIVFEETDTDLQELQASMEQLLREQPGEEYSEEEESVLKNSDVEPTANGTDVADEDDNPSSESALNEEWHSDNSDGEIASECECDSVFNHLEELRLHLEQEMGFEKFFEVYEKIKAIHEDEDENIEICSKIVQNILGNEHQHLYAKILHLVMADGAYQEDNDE

[10] = target: T3, Dual specificity mitogen-activated protein kinase kinase 6 (Homo sapiens) (UniProt P52564)
T3 sequence (whole entry): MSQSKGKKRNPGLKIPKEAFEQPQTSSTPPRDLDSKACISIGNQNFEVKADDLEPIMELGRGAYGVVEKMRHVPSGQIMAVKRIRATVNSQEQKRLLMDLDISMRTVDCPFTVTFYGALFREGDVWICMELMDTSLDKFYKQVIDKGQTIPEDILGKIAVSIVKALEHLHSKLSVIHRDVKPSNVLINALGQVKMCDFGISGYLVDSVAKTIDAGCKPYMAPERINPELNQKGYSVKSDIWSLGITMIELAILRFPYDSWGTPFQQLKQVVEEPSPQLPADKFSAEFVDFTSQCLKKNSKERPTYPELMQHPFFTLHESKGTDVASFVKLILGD

[11] = target: Cyclin-dependent kinase 3 (Homo sapiens) (UniProt Q00526)
[12] = Compound concentration 1000.0 nM
[13] = Compound concentration 100.0 nM

Measured: residual activity

Insulin receptor-related protein (Homo sapiens), sequence (P14616 27-742 limits assumed): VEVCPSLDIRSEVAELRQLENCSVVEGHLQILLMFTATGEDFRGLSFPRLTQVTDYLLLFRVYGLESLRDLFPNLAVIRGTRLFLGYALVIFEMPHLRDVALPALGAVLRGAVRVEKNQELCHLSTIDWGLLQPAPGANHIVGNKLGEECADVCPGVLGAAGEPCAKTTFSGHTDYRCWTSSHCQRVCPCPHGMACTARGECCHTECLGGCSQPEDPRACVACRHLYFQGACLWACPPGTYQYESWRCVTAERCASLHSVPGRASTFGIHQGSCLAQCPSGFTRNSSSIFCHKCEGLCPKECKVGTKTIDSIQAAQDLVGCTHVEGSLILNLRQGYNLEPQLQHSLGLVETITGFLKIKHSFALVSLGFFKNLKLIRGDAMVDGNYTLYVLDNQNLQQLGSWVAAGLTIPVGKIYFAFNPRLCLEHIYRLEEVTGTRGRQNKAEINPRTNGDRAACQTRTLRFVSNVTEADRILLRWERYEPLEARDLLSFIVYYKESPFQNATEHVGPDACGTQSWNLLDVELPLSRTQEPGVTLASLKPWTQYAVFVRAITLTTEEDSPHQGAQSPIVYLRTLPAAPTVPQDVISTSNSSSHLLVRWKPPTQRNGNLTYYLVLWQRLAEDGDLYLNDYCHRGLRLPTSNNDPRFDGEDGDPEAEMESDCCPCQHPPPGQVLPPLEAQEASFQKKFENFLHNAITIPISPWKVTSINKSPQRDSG
Insulin receptor-related protein (Homo sapiens), sequence (P14616 747-1297 limits assumed): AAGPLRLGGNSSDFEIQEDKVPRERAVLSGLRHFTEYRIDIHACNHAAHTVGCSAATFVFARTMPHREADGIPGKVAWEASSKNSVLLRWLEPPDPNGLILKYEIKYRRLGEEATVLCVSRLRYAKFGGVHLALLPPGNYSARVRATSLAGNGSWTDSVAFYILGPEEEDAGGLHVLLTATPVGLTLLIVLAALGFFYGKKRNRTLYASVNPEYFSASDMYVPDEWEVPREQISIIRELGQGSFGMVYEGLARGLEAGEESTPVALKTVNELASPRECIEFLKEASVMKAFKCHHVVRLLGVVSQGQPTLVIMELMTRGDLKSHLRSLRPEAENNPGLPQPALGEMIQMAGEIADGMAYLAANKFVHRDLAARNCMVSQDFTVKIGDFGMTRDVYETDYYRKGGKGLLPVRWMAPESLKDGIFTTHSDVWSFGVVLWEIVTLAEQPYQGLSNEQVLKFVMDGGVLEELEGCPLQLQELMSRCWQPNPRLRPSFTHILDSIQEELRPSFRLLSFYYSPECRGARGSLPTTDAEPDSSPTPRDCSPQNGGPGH
BMP-2-inducible protein kinase (Homo sapiens), sequence (Q9NSY1 whole entry, looked up): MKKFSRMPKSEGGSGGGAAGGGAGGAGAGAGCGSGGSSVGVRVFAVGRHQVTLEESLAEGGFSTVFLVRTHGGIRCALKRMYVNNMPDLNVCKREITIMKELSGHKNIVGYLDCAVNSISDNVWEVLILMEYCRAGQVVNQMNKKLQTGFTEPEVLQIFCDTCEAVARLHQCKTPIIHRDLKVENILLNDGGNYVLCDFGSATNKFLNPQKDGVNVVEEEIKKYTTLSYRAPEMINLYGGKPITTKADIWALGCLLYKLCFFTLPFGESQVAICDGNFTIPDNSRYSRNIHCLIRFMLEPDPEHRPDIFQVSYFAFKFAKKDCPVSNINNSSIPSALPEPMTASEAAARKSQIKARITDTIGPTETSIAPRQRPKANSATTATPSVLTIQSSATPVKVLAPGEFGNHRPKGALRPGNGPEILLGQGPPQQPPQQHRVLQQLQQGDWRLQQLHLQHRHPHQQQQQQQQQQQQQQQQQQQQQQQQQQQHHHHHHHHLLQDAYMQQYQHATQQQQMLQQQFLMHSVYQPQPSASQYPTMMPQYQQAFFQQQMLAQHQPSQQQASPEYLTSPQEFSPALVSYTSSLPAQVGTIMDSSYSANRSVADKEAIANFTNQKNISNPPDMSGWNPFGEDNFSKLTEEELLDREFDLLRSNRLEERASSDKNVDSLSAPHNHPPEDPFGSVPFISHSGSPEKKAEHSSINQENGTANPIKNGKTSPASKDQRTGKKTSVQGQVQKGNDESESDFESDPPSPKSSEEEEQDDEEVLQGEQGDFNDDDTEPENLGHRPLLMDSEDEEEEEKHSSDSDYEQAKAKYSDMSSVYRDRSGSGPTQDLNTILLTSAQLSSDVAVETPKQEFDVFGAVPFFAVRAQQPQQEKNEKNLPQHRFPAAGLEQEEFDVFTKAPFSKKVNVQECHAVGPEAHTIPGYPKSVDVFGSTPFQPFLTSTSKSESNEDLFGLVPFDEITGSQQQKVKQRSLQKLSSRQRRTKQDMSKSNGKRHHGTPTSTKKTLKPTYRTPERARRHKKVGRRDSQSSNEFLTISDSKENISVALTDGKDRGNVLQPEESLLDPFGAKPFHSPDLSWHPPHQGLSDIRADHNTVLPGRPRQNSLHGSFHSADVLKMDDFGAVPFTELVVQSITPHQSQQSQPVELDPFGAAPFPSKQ
Tyrosine-protein kinase Fer (Homo sapiens), sequence (P16591 whole entry, looked up): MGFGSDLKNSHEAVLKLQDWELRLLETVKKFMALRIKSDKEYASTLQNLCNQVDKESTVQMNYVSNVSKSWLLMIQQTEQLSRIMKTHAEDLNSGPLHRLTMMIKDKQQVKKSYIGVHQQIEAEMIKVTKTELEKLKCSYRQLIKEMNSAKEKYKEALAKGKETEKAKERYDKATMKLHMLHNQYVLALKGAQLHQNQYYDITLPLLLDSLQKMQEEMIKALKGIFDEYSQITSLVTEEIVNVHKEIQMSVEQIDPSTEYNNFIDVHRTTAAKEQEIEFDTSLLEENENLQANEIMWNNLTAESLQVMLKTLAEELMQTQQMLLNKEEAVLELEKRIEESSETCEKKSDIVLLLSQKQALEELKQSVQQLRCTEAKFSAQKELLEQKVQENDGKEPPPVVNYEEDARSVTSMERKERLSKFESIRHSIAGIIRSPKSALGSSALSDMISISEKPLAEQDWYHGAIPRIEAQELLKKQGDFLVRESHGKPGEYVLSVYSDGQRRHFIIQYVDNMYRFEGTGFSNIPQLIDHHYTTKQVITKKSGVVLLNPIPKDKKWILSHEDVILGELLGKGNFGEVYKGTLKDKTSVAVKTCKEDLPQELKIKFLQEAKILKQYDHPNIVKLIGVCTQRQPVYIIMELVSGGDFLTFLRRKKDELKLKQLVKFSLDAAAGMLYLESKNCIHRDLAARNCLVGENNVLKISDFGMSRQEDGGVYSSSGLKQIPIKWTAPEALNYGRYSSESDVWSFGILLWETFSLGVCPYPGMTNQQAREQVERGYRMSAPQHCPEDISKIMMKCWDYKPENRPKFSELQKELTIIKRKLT
Cyclin-dependent kinase 3 (Homo sapiens), sequence (Q00526 whole entry, looked up): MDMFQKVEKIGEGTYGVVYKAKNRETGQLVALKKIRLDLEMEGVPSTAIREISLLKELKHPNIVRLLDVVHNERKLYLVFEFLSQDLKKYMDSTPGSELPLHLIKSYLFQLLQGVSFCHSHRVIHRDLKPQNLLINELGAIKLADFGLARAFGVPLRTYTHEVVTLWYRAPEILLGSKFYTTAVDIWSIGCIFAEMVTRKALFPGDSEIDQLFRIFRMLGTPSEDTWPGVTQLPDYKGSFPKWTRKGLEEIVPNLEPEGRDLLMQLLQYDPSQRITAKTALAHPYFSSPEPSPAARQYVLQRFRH
Serine/threonine-protein kinase Nek6 (Homo sapiens), sequence (Q9HC98 whole entry): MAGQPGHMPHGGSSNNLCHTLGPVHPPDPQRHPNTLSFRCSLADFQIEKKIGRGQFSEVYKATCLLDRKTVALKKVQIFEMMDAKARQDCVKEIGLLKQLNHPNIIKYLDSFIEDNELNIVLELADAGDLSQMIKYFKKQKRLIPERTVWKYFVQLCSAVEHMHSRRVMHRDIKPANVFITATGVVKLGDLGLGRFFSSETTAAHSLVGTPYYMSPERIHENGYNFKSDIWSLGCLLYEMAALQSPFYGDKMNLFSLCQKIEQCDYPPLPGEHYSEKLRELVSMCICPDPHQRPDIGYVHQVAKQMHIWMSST
Serine/threonine-protein kinase MARK1 (Homo sapiens), sequence (Q9P0L2 whole entry, looked up): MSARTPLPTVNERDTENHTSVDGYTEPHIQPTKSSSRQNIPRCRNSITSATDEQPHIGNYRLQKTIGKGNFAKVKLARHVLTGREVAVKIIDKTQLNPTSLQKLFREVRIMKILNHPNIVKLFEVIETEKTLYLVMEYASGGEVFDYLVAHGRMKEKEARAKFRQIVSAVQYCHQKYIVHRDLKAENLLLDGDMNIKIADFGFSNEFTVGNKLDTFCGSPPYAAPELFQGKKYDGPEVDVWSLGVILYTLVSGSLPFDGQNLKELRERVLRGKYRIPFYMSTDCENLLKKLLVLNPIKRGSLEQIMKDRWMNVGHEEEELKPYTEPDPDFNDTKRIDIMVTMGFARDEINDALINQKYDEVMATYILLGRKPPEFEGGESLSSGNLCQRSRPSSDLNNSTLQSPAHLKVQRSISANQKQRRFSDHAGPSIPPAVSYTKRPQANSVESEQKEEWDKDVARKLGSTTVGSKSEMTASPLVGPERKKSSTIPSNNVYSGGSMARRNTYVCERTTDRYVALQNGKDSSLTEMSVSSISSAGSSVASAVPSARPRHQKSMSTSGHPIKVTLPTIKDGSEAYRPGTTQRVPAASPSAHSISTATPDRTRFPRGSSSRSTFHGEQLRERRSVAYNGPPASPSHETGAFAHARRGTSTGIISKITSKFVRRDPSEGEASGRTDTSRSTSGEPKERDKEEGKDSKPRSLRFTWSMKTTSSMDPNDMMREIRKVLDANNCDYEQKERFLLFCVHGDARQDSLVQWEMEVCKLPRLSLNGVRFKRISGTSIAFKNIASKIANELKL

C[C@@H]1CN(c2cc(-c3nn(C)c4ccc(OC5(C)CC5)cc34)ncn2)C[C@H](C)O1 [MLi-2-NC]
inactive: [1]; [12] 100% | [2]; [12] 100% | [3]; [12] 100% | [4]; [12] 85% | [5]; [12] 100% | [6]; [12] 91% | [7]; [12] 100% | [8]; [12] 67% | [9]; [12] 83% | [10]; [12] 89% | [11]; [12] 98%

C[C@@H]1CN(c2cc(-c3n[nH]c4ccc(OC5(C)CC5)cc34)ncn2)C[C@H](C)O1 [MLi-2]
inactive: [1]; [13] 100% | [2]; [13] 91% | [3]; [13] 86% | [4]; [13] 69% | [5]; [13] 100% | [6]; [13] 57% | [7]; [13] 100% | [8]; [13] 84% | [9]; [13] 100% | [10]; [13] 100% | [11]; [13] 76%
